Experimental data taken from patent US10766862B2, “Crystal form and salt form of and preparation method for tyrosine kinase inhibitor” (GUANGDONG RAYNOVENT BIOTECH CO., LTD., priority 2016, dated 2020).

What was measured:
FGFR1 = biological target: T1, FGFR1 (Homo sapiens, UniProt P11362); assay: Z'-LYTE Detection Kinase Assay, FGFR1 enzyme reaction; format: biochemical
T1 construct: purchased Life technology
Text: (§1) It is to evaluate the inhibitory effect of the compound on three kinases VEGFR2, FGFR1, PDGFRB by detecting the enzyme activity in accordance with Z′-LYTE™ Detection Kinase Assay and using the ICso value of the compound as the index.
(§2) Recombinant human VEGFR2 and FGFR1 proteins are purchased from Life technology, and PDGFRB proteinase is purchased from Millipore.
(§3) Z-LYTE™ Kit Tyr1 and Tyr4 are purchased from Life technology.
(§4) Read with Multimode Microplate Reader Envision (PerkinElmer).
(§5) The compound to be test was subject to a 3-fold concentration gradient dilution to 11 final concentrations ranging from 10 μM to 0.17 nM 11 with two duplicate wells per concentration. The concentration of DMSO was 1% in the test reaction.
1 nM FGFR1 protein kinase, 2 μM Tyr4 peptide, 25 μM ATP, 50 mM HEPES (pH 7.5), 10 mM MgCl2, 1 mM EGTA, 0.01% BRIJ-35, 2 mM MnCl2, 1 mM DTT. The test plate is Black Proxiplate 384-Plus plate (PerkinElmer). The reaction runs at room temperature for 60 minutes, and the reaction system is 10 μL.
(§6) 5 μL of DV reagent B (1:128) was added to the kinase reaction mixture to stopped the reaction. The reaction mixture was incubated at 23° C. for 60 minutes, and read by Envision.
(§7) The data were converted to the phosphorylation rate and the inhibition rate. The parameter curve was fitted (Model 205 in XLFIT5, iDBS) to obtain the ICso data of the compound.

HUVEC = assay: CellTiter-Glo Luminescent Cell Viability Assay on HUVEC stimulated with hVEGF-165; format: cell-based; conditions: Homo sapiens, hVEGF-165 20 ng/ml, 72 hr
Description: It is to detect the intracellular ATP change by CellTiter-Glo® Luminescent Cell Viability Assay, and evaluate the inhibitory effect of the compound on in vitro cell HUVEC with ICso value of the compound as the index.
HUVEC cell lines (ATCC), EGM-2 BulletKit (Lonza), hVEGF-165 (Cell Signaling), pancreatin (Invitrogen), DPBS (Hyclone), 384-well cell plate (Greiner), 384-well compound plate (Greiner), CO2 incubator (Thermo), centrifuger (Eppendorf), Vi-cell Cell Count (Beckman Coulter), Bravo Automated Liquid Handing Platform (Agilent), Envision (Perkin Elmer)
Test Method • A. Cells recovery and growth. • B. Cell planking: HUVEC cells were re-suspended with a fasted media (containing only 2% FBS and 0.1% GA-1000), and diluted to a concentration of 20,000/mL. The diluted cells were added into 384-well plate (Greiner) with 50 μL/well. The cell plate was placed in an incubator containing 5% CO2 at 37° C. overnight. • C. Compound Addition: The compound to be tested was subject to a 4-fold gradient dilution to 10 samples having a final concentration ranging from 10 μM to 0.038 nM with two duplicate wells per concentration. […] The mixture was incubated at room temperature for 10-30 minutes, and read with Envision. […]

VEGFR2 = biological target: T2, VEGFR2 (Homo sapiens, UniProt P35968); assay: Z'-LYTE Detection Kinase Assay, VEGFR2 enzyme reaction; format: biochemical
T2 construct: purchased Life technology
Text: as §1, §2, §3, §4, §5
3 nM VEGFR2 protein kinase, 2 μM Tyr1 peptide, 100 μM ATP, 50 mM HEPES (pH 7.5), 10 mM MgCl2, 1 mM EGTA, 0.01% BRIJ-35. The test plate is Black Proxiplate 384-Plus plate (PerkinElmer). The reaction runs at room temperature for 60 minutes, and the reaction system is 10 μL.
as §6, §7

PDGFRB = biological target: T3, PDGFRB (Homo sapiens, UniProt P09619); assay: Z'-LYTE Detection Kinase Assay, PDGFRB enzyme reaction; format: biochemical
T3 construct: purchased Millipore
Text: as §1, §2, §3, §4, §5
40 nM PDGFRB protein kinase, 2 μM Tyr4 peptide, 100 μM ATP, 50 mM HEPES (pH 7.5), 10 mM MgCl2, 1 mM EGTA, 0.01% BRIJ-35, 2 mM MnCl2, 1 mM DTT. The test plate is Black Proxiplate 384-Plus plate (PerkinElmer). The reaction runs at room temperature for 60 minutes, and the reaction system is […].
as §6, §7

[1] = 100 μM ATP, 60 minutes, room temperature

T3 sequence (P09619 33-1106): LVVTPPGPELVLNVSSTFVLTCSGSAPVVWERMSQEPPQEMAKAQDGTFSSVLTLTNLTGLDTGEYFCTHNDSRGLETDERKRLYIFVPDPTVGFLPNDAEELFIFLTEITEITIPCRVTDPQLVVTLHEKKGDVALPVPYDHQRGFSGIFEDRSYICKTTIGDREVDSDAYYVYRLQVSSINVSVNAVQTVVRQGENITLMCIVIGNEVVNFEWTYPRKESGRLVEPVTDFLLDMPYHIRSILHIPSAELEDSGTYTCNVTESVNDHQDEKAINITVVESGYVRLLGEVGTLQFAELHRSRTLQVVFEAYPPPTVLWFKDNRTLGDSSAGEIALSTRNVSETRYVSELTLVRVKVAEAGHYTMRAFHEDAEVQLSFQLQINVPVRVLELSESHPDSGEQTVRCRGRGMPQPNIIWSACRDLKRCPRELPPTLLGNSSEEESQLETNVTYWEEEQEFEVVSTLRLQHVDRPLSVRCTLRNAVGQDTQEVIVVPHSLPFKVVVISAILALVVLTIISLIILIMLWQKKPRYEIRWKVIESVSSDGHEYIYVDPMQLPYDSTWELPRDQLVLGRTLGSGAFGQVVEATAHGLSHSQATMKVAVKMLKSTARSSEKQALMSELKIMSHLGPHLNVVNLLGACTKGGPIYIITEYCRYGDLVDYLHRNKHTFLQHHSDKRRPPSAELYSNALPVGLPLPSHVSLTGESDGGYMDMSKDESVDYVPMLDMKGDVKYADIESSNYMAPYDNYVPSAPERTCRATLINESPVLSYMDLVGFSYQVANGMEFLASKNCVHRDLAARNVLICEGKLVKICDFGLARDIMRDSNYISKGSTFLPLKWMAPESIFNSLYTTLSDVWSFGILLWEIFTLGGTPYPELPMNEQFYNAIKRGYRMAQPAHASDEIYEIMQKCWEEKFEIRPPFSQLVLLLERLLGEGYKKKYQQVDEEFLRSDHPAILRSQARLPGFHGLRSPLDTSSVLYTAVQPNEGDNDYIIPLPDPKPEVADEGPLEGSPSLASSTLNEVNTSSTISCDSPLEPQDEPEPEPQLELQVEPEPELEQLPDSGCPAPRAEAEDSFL
T2 sequence (P35968 20-1356): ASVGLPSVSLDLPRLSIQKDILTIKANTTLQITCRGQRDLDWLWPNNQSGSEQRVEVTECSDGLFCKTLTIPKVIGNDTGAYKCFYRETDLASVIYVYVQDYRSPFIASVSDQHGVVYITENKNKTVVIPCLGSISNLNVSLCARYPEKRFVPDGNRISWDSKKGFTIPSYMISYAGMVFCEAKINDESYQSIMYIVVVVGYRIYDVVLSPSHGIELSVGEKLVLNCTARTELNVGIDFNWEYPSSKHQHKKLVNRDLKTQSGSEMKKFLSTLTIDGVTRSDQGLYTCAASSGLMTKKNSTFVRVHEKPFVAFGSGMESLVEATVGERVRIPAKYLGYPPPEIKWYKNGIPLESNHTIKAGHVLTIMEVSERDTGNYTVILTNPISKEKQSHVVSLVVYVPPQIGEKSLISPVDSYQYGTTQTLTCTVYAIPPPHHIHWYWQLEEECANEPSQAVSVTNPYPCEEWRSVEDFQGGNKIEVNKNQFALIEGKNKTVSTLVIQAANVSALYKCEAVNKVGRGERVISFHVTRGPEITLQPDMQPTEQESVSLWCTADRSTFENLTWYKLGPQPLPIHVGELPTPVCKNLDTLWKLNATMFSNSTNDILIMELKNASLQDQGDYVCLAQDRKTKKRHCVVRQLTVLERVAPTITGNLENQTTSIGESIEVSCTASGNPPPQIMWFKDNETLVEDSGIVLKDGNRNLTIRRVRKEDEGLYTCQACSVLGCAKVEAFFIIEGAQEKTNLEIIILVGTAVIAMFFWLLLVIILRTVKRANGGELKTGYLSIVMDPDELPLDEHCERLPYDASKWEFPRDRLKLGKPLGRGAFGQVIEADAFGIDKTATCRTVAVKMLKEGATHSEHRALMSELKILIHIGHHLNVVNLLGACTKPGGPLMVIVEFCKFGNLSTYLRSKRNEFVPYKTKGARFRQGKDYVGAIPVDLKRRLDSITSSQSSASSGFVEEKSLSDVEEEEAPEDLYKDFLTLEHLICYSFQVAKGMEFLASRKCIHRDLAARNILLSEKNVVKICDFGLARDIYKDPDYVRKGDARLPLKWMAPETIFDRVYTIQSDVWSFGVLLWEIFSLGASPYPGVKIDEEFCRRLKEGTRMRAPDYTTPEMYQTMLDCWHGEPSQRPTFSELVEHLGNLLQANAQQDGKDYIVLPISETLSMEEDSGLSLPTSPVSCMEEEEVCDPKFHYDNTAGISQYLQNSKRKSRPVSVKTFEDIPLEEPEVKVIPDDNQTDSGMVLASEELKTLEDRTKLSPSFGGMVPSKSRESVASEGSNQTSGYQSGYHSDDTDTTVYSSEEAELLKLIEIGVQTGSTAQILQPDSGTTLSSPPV
T1 sequence (P11362 22-822): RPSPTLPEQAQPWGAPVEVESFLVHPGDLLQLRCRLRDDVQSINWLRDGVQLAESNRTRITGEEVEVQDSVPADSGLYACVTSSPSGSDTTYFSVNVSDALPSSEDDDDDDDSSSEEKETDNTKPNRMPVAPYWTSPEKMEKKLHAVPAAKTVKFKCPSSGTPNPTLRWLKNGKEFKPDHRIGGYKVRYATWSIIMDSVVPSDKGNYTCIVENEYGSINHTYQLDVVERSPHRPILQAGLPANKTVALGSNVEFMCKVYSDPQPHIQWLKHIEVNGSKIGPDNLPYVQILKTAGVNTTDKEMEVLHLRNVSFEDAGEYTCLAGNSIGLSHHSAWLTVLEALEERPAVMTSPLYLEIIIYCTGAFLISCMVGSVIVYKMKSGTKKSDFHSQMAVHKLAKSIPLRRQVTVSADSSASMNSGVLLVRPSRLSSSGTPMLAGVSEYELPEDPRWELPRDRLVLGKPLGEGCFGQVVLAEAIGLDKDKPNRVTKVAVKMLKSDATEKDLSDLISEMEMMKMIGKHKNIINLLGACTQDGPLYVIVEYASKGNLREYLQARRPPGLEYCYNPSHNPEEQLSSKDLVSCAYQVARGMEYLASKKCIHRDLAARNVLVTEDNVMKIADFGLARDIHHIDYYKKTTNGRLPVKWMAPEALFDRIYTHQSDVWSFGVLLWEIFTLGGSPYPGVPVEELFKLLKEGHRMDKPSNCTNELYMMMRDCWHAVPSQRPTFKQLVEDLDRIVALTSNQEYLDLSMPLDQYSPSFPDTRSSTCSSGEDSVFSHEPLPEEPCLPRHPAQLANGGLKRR

COc1cc2nccc(Oc3ccc(NC(=S)NC4CC4)c(Cl)c3F)c2cc1C(N)=O [Compound 1]
Inhibitory activity on FGFR1 in vitro, conclusion in words (FGFR1): superior inhibitory activity
IC50 (FGFR1; 25 μM ATP, 60 minutes, room temperature): 50 to 200 nM
IC50 (HUVEC): < 100 nM
Inhibitory activity on VEGFR2 in vitro, conclusion in words (VEGFR2): superior inhibitory activity
IC50 (VEGFR2; [1]): < 50 nM
Inhibitory activity on PDGFRB in vitro, conclusion in words (PDGFRB): superior inhibitory activity
IC50 (PDGFRB; [1]): < 50 nM
